Measured values as given in PubChem BioAssay (NCI).
Where “and” joins values, the source holds several entries; their conditions need not be identical. Equal values may be shown once.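 Results reflect a 48-hour exposure of cells in 96-well plates to compound at five concentrations. At the GI50, growth is halved. TGI denotes the concentration required for complete inhibition of growth.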

Experiments:
Assay in all cases: DTP human tumour cell line panel, 48 h
[1] = test system: 786-0 renal
[2] = test system: A498 renal
[3] = test system: HCC-2998 colon
[4] = test system: HCT-116 colon
[5] = test system: HCT-15 colon
[6] = test system: IGROV1 ovarian
[7] = test system: SN12C renal
[8] = test system: SNB-75 CNS
[9] = test system: UACC-257 melanoma
[10] = test system: UO-31 renal

c1ccc2c(Nc3ccc(Oc4ccc(Nc5c6ccccc6nc6ccccc56)cc4)cc3)c3ccccc3nc2c1
TGI [1]: 0.0305 µM
TGI [2]: 3.85 µM
TGI [3]: 0.0155 µM
GI50 [4]: 0.155 µM and 0.0325 µM
TGI [4]: 0.289 µM and 0.117 µM
GI50 [5]: 0.019 µM and 0.017 µM
TGI [5]: 0.0358 µM and 0.0379 µM
GI50 [6]: 0.292 µM and 1.16 µM
TGI [6]: 1.21 µM and 2.64 µM
GI50 [7]: 0.213 µM and 0.375 µM
TGI [7]: 0.651 µM and 1.69 µM
GI50 [8]: 1.59 µM
TGI [8]: 3.98 µM and 1.45 µM
GI50 [9]: 1.73 µM and 0.245 µM
TGI [9]: 3.2 µM and 0.524 µM
GI50 [10]: 1.37 µM and 1.19 µM
TGI [10]: 2.66 µM and 2.6 µM

CC(C)=CC(O)C/C(C)=C/CC/C(C)=C/CCC1(C)C(CCCO)/C(=C(/C)C=O)CCC1(C)O (configuration not stated)
TGI [1]: > 100 µM
TGI [2]: > 100 µM
TGI [3]: 68.2 µM
TGI [4]: > 100 µM
TGI [5]: > 100 µM
TGI [6]: 61.7 µM
TGI [7]: 76.2 µM
TGI [8]: > 100 µM
TGI [9]: > 100 µM
TGI [10]: > 100 µM

C=C(C)[C@@H]1CC[C@]2(C(=O)O)CC[C@]3(C)[C@H](CC[C@@H]4[C@@]5(C)C[C@@H](CC#Cc6ccc(Br)cc6)C(=O)C(C)(C)[C@@H]5CC[C@]43C)[C@@H]12
GI50 [1]: 5.27 µM
TGI [1]: 22.2 µM
GI50 [2]: 2.42 µM
TGI [2]: 7.29 µM
GI50 [3]: 36 µM
TGI [3]: > 100 µM
GI50 [4]: 4.34 µM
TGI [4]: 83.3 µM
GI50 [5]: 25.8 µM
TGI [5]: > 100 µM
GI50 [6]: 4.07 µM
TGI [6]: 24.9 µM
GI50 [7]: 2.99 µM
TGI [7]: 9.25 µM
GI50 [8]: 13.5 µM
TGI [8]: 34.6 µM
GI50 [9]: > 100 µM
TGI [9]: > 100 µM
GI50 [10]: > 100 µM
TGI [10]: > 100 µM

CCCCCCCCCCCCCCCCOC(=O)c1c(C)[nH]c(/C=C2\N=C(c3ccc[nH]3)C=C2OC)c1C
GI50 [1]: 1.07 µM
TGI [1]: 14.4 µM
GI50 [2]: 1.51 µM
TGI [2]: 5.47 µM
GI50 [3]: 0.244 µM
TGI [3]: 14.9 µM
GI50 [4]: 0.043 µM
TGI [4]: 7.33 µM
GI50 [5]: 2.21 µM
TGI [5]: > 100 µM
GI50 [6]: 1.06 µM
TGI [6]: 9.4 µM
GI50 [7]: 1.64 µM
TGI [7]: 23.7 µM
GI50 [8]: 2.47 µM
TGI [8]: 7.17 µM
GI50 [9]: 9.69 µM
TGI [9]: > 100 µM
GI50 [10]: 1.21 µM
TGI [10]: 17.1 µM

COc1cc2c3c(n(CCCNC(=O)OCC4c5ccccc5-c5ccccc54)c(=O)c2cc1OC)-c1cc2c(cc1C3=O)OCO2
GI50 [1]: 37.7 µM
TGI [1]: > 100 µM
GI50 [2]: 24.9 µM
TGI [2]: > 100 µM
GI50 [3]: > 100 µM
TGI [3]: > 100 µM
GI50 [4]: 13.8 µM
TGI [4]: > 100 µM
GI50 [5]: > 63.2 µM
TGI [5]: > 100 µM
GI50 [6]: > 100 µM
TGI [6]: > 100 µM
GI50 [7]: > 100 µM
TGI [7]: > 100 µM
GI50 [8]: 34.8 µM
TGI [8]: > 86.4 µM
GI50 [9]: > 100 µM
TGI [9]: > 100 µM
GI50 [10]: > 100 µM
TGI [10]: > 100 µM

CO/N=C(\COc1ccc2c(c1)oc(=O)c1cc(OC)ccc12)c1cccc(OC)c1
GI50 [1]: > 100 µM
TGI [1]: > 100 µM
GI50 [2]: 80.2 µM
TGI [2]: > 100 µM
GI50 [3]: > 100 µM
TGI [3]: > 100 µM
GI50 [4]: > 100 µM
TGI [4]: > 100 µM
GI50 [5]: > 100 µM
TGI [5]: > 100 µM
GI50 [6]: > 100 µM
TGI [6]: > 100 µM
GI50 [7]: > 100 µM
TGI [7]: > 100 µM
GI50 [8]: > 100 µM
TGI [8]: > 100 µM
GI50 [9]: > 100 µM
TGI [9]: > 100 µM
GI50 [10]: > 100 µM
TGI [10]: > 100 µM

COc1cc(Nc2ncc3c(C)nc(-c4cccc(Oc5ccccc5)c4)n3n2)cc(OC)c1OC
GI50 [1]: 6.2 µM
TGI [1]: > 25 µM
GI50 [2]: 2.03 µM
TGI [2]: > 22.9 µM
GI50 [3]: 5.15 µM
TGI [3]: > 25 µM
GI50 [4]: 3.03 µM
TGI [4]: > 25 µM
GI50 [5]: 2.5 µM
TGI [5]: > 25 µM
GI50 [6]: 2.32 µM
TGI [6]: > 25 µM
GI50 [7]: 5.32 µM
TGI [7]: > 21.6 µM
GI50 [8]: 5.14 µM
TGI [8]: > 25 µM
GI50 [9]: 10.4 µM
TGI [9]: > 25 µM
GI50 [10]: 1.39 µM
TGI [10]: 18.2 µM

O[C@@H]1CCCN1Cc1cc2cc3c(cc2c2cc(OCc4ccccc4)ccc12)OCO3
GI50 [1]: 1.89 µM
TGI [1]: 3.69 µM
GI50 [2]: 10.5 µM
TGI [2]: 25.3 µM
GI50 [3]: 1.85 µM
TGI [3]: 3.76 µM
GI50 [4]: 2.1 µM
TGI [4]: 5.16 µM
GI50 [5]: 3.47 µM
TGI [5]: 12.3 µM
GI50 [6]: 5.48 µM
TGI [6]: 20.1 µM
GI50 [7]: 3.6 µM
TGI [7]: 20.3 µM
GI50 [8]: 5.92 µM
TGI [8]: 19.7 µM
GI50 [9]: 2.17 µM
TGI [9]: 4.37 µM
GI50 [10]: 11.2 µM
TGI [10]: 25.2 µM
